Legend:
Notch pathway [1] = experiment: Notch-responsive reporter (4xCSL-Luc) in SW480 cells; type: cell-based, human; conditions: data not shown
Text: FJX1 expression in colon cancer cells. In preliminary studies examining the role of fjx1 as it relates to Notch signaling in CRC, the inventors have assessed expression of fjx1 mRNA in several human colon cancer cell lines and found abundant expression of fjx1 in both SW480 and SW620 cells (in comparison with colon adenomas), and less abundant expression in HT29 cells as determined by qRT-PCR (data not shown). Since four-jointed in Drosophila is regulated by Notch signaling, and mouse fjx1 expression appears to be a target of Notch regulation, the inventors predicted that inhibition of Notch signaling would inhibit fjx1 expression in colon cancer cells. A reliable pharmacological method of inhibiting Notch signaling is to block release of the Notch intracellular domain through inhibition of γ-secretase activity (van Es, 2005). A complementary genetic method of Notch inhibition is through the use of a truncated, dominant negative construct of Mastermind or “dnMAM” (pCS2-Myc 1-30aa Mastermind a gift from K. A. Jones, Ph.D., the Salk Institute, La Jolla, Calif.) (Fryer, 2002). The dnMAM is mutated such that it cannot form a functional RBPJ complex and therefore, cannot activate the Notch responsive promoter. […] The inventors have also used DAPT treatments of SW480 and SW620 cells (200 nM for 16 hrs) to block expression of fjx1 in response to Notch signaling (FIG. 19).

[2] = system: FJX1 mRNA in SW620 colon cancer cells; experiment: qRT-PCR of FJX1 mRNA after γ-secretase inhibition in SW620 cells; type: cell-based, human; conditions: 200 nM DAPT vs vehicle (DMSO), 16 hrs
Text: (§1) FIG. 19A-B—Inhibition of Notch signaling causes a reduction in fjx1 expression in colon cancer cells. Fjx1 expression levels as determined by qRT-PCR in (FIG. 19A) SW480 and (FIG. 19B) SW620 colon cancer cells following treatment with the γ-secretase inhibitor DAPT.
(§2) Since four-jointed in Drosophila is regulated by Notch signaling, and mouse fjx1 expression appears to be a target of Notch regulation, the inventors predicted that inhibition of Notch signaling would inhibit FJX1 expression in colon cancer cells. A reliable pharmacological method of inhibiting Notch signaling is to block release of the Notch intracellular domain through inhibition of γ-secretase activity (van Es et al., 2005). Therefore, the inventors used a selective inhibitor of γ-secretase, DAPT, or vehicle (DMSO) to treat SW480 and SW620 cells for 16 hrs and determined the effect on levels of FJX1.
FJX1 expression in colon cancer cells. In preliminary studies examining the role of fjx1 as it relates to Notch signaling in CRC, the inventors have assessed expression of fjx1 mRNA in several human colon cancer cell lines and found abundant expression of fjx1 in both SW480 and SW620 cells (in comparison with colon adenomas), and less abundant expression in HT29 cells as determined by qRT-PCR (data not shown). […]

Notch pathway [3] = experiment: Notch-responsive reporter (4xCSL-Luc) in HEK293T cells; type: cell-based, human; conditions: transient transfection, DAPT 200 nM or dnMAM
Method: FIGS. 18A-B—Experimental inactivation of Notch pathway signaling in HEK293 cells. Transient transfections of cells was carried out using a Notch promoter reporter plasmid (4xCSL) and a control reporter (pRL-tk). The Relative Light Units (4xCSL/pRL-tk) are plotted for each treatment group. (FIG. 18A) Notch activity in HEK293 cells following treatment with NICD, NICD+200 nM DAPT, LNG (negative control), LNG+200 nM DAPT and 200 nM DAPT. (FIG. 18B) Notch promoter activity in HEK293 cells following treatment with dnMAM, NICD, NICD+dnMAM, LNG and LNG+dnMAM.
FJX1 expression in colon cancer cells. In preliminary studies examining the role of fjx1 as it relates to Notch signaling in CRC, the inventors have assessed expression of fjx1 mRNA in several human colon cancer cell lines and found abundant expression of fjx1 in both SW480 and SW620 cells (in comparison with colon adenomas), and less abundant expression in HT29 cells as determined by qRT-PCR (data not shown). Since four-jointed in Drosophila is regulated by Notch signaling, and mouse fjx1 expression appears to be a target of Notch regulation, the inventors predicted that inhibition of Notch signaling would inhibit fjx1 expression in colon cancer cells. A reliable pharmacological method of inhibiting Notch signaling is to block release of the Notch intracellular domain through inhibition of γ-secretase activity (van Es, 2005). […]

[4] = system: FJX1 mRNA in SW480 colon cancer cells; experiment: qRT-PCR of FJX1 mRNA after γ-secretase inhibition in SW480 cells; type: cell-based, human; conditions: 200 nM DAPT vs vehicle (DMSO), 16 hrs
Method: FIG. 3—Decreased FJX1 expression following inhibition of […] (DAPT) in SW480 colon cancer cells. Cells were grown to 70-80% confluence using complete RPMI and then treated with 200 nM of DAPT or vehicle. The RNA was harvested 16 hrs later using an RNeasy™ kit (Qiagen). qRT-PCR was performed as outlined in the text. Gene expression values were normalized to a housekeeping gene (PMM1) for the final analysis. The values are expressed as fold-change in comparison to normal colonic mucosal levels.
as §1
as §2, with “FJX1. […]” for “FJX1.”

FJX1 mRNA = experiment: qRT-PCR of FJX1 expression in rectal cancer biopsies before and after celecoxib; type: in vivo, human; conditions: range in the four of five rectal cancers that were down-regulated; pre vs post treatment

Row | Structure (SMILES) | Notch promoter reporter activity (4xCSL-Luc) (Notch pathway [1]) | levels of FJX1 mRNA [2] | Notch promoter reporter activity (4xCSL/pRL-tk relative light units) (Notch pathway [3]) | levels of FJX1 mRNA [4] | fjx1 mRNA decrease after Celecoxib treatment (qRT-PCR) (FJX1 mRNA)
1 | C[C@H](NC(=O)Cc1cc(F)cc(F)c1)C(=O)N[C@H](C(=O)OC(C)(C)C)c1ccccc1 [DAPT] | specific Notch pathway inhibition | reduced the levels of FJX1 mRNA | specific Notch pathway inhibition | reduced the levels of FJX1 mRNA | 
2 | Cc1ccc(-c2cc(C(F)(F)F)nn2-c2ccc(S(N)(=O)=O)cc2)cc1 [celecoxib] |  |  |  |  | 2.5-17.5 fold decrease

From patent US8153368B2, “Four-jointed box (FJX1) in cancer diagnosis and treatment” (Vanderbilt University, priority 2007, dated 2012)
